Patent US20230146675A1, “PYRIMIDO[5,4-d]PYRIMIDINE DERIVATIVES AS ENT INHIBITORS FOR THE TREATMENT OF CANCERS, AND COMBINATION THEREOF WITH ADENOSINE RECEPTOR ANTAGONISTS” (ITEOS BELGIUM SA, priority 2020, published 2023)
Read-outs that look alike come from different tables or passages of the source.

Key:
human ENT1 [1] = target: T1, human ENT1 (Homo sapiens, UniProt Q99808); assay: Uridine transport inhibition assay (3H-uridine uptake, MDCKII-ENT1-LV cells); format: cell-based; conditions: 3H-uridine (1 μM), 1 min at 25° C.
T1 sequence (Q99808 1-456): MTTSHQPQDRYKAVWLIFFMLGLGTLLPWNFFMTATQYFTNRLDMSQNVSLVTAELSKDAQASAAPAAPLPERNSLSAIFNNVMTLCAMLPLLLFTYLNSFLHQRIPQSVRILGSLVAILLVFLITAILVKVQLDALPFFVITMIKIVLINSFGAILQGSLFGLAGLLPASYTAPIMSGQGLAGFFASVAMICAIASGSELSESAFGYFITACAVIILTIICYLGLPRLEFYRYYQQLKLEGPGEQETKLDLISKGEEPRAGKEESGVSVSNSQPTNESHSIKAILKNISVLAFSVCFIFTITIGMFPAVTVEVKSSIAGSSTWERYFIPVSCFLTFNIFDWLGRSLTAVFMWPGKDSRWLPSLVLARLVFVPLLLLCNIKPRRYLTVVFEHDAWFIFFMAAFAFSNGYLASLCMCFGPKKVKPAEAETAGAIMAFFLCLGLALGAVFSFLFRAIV
Description: Purpose. The aim of this study was to determine the potency of equilibrative nucleoside transporter 1 (ENT1) inhibitors by measuring ENT1-mediated transport is the cellular uptake assay. The human ENT1 transporter can be stably expressed in Madin-Darby Canine Kidney II (MDCKII) cells via transduction. Uridine is efficiently transported by ENT1 and is used as probe in the assay as 3H-uridine. The interaction is detected as the modulation of the initial rate of 3H-uridine transport by human ENT1 into MDCKII-ENT1-LV cells stably expressing ENT1 uptake transporter.

[2] = system: stimulated primary human T cells; assay: T cell proliferation assay (rescue of proliferation in presence of 100 uM ATP); format: cell-based
Description: Purpose. The aim of this study was to determine the potency of equilibrative nucleoside transporter 1 (ENT1) inhibitors to rescue proliferation by stimulated primary human T cells incubated in the presence of 100 uM Adenosine triphosphate (ATP) with: • Condition A: X-VIVO15 • Condition B: X-VIVO15, 2% Human Serum Albumine (HSA) and 0.1% α-1-Acid Glycoprotein (AAG)
Method. Cryopreserved purified human CD3+ T cells were thawed and washed twice with RPMI1640 medium, UltraGlutamine containing 10% hiFBS.
Cells were suspended in PBS containing 10% hiFBS. Cells were stained with CFSE by adding 2 μM solution in PBS, to get a final 1 μM CFSE solution. Cells were incubated while rotating for 5 minutes. Reaction was stopped by adding PBS with 10% FBS and cells were centrifuged for 5 minutes at 1500 rpm.
Cells were resuspended at 1.6×10^6 cells/mL, either in X-VIVO15 medium or in 4% Human Serum Albumin and 0.2% α-1-Acid Glycoprotein. 50 μL of cell suspension (8×10^4 T cells) was added to wells of sterile round-bottom 96-well plates. Cells were activated by adding 50 μL of anti-CD3 anti-CD28 coated microbeads, suspended either in XVIVO-15 medium or in 4% HSA and 0.2% α-1-Acid Glycoprotein, at a ratio of one microbead per two cells.
Serial dilutions of the ENT1 inhibitors were prepared in X-VIVO15 from 10 mM stock solutions in DMSO, and 50 μL was added to the wells.
ATP powder was diluted in X-VIVO15, and 50 μL of this compound was added to the wells to reach a final assay concentration of 100 μM. Final volume of 200 μL.
The experiments were also performed in 384 well plates—all volumes reduced by a factor of 4 ([…]) with a final volume of 50 μL.
Experiments were performed in duplicate. The cells were placed in a 37° C. humidified tissue culture incubator with 5% CO2 for 72 hours for 96 well plates, 96 hours for 384 well plates. After 72 or 96 hours, proliferation was measured determined by CFSE dilution via flow cytometry.
Results. Compounds of the invention have good ENT1 inhibitory properties.

[3] = system: human alpha 1-acid glycoprotein (AAG); assay: AAG binding assay - HPLC assay; conditions: human, 100 μmol/L
Description: Purpose. […] The principle of the assay is a liquid chromatography on a human AAG protein immobilized onto a silica support for separations of compounds following their affinity to AAG protein. By measuring the retention time, the binding to AAG can be determined relatively to the references.
Method. […] Mobile Phase A: 50 mM Ammonium acetate in deionized water; Mobile Phase B: Isopropanol; Column Oven: 8° C.; PDA(nm): 230; Flow Rate (mL/min): 0.2. Test Concentration (μmol/L): 100 (from 10 mmol/L DMSO solution diluted 100 folds by 50 mM Ammonium acetate in deionized water: Isopropanol (1:1)). Generic Gradient: Time (min): 0.01; 5; 13; 14; 20.

human AAG protein = assay: AAG binding assay - dialysis assay; conditions: 2 μM, 37° C., 4-hr
Description: Purpose. The aim of this assay is to determine the binding of a compound of interest to the human AAG protein using the robust method of dialysis.
Material. […] The dialysis Buffer (100 mM Phosphate Buffered Saline, pH 7.4) has been prepared by dissolving 28.56 g Na2HPO4.12H2O (AR grade) and 3.12 g NaH2PO4.2H2O (AR grade) into a final volume of 1000 mL ultra pure water, mixed, and adjusted the resulting solution with 1% phosphoric acid or 1 M sodium hydroxide to pH 7.4±0.1. Stored the final solution in 2-8° C. refrigerator within an expiration of a month after preparation.
Method: The dialysis membrane is soaked in dialysis buffer at 4° C. overnight. The following day the membrane is separated into two strips and then soaked in ethanol: water (20:80 v:v) for 20 mins. Then the membrane was rinsed with ultra-pure water 3-4 times. Prepared 400 μM working solution by diluting the stock solution (10 mM) with appropriate volume of DMSO. 5 μL aliquots of each working solution were spiked into 1000 μL of blank protein (matrix) to achieve a 2 μM final concentration as loading solution. The plates of loading solution were mixed well. Aliquots of 150 μL of loading solution were loaded in triplicate to the donor side of each dialysis well and dialyzed against an equal volume of dialysis buffer. […]
The concentration was calculated using the peak area ratio of analyte and internal standard.

human ENT1 [4] = target: T1, human ENT1; assay: ENT1 binding assay (competition with Sahenta-DY647 on JAR cells); parameters: JAR cells expressing ENT1 were bought from ATCC; host or cells: JAR cells; conditions: binned IC50
Method in brief: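 JAR cells were incubated with test compounds and the fluorescent ligand Sahenta-DY647 in competition. Plates were washed twice by centrifugation (4 min, 400 rcf, 4 °C). Binding potency was derived from the final fluorescence.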

- IC50 (human ENT1 [1]): < 100 nM
- retention time (rt) on immobilized human AAG column [3]: 5.2 min
- Human alpha-1-acid glycoprotein (AAG) (1 mg/mL) Unbound (human AAG protein): 24.6% Unbound
- IC50 (human ENT1 [4]): 100 to 500 nM
Compound: COCCN(CCOC)c1nc(N2CCC(OC)CC2)c2nc(N(CCOC)CCOC)nc(N3CCC(OC)CC3)c2n1 [Compound 2, N2,N2,N6,N6-tetrakis(2-methoxyethyl)-4,8-bis(4-methoxypiperidin-1-yl)pyrimido[5,4-d]pyrimidine-2,6-diamine]
- IC50 ([2]; Condition A: X-VIVO15, read-out: TCell proliferation (Condition A) IC50): 100 to 500 nM
- IC50 ([2]; Condition B: X-VIVO15, 2% HSA and 0.1% AAG, read-out: TCell proliferation (Condition B) IC50): 100 to 500 nM
